Results on two compounds are retold here after US11214556B1, “Method of treating colorectal cancer” (King Abdulaziz University, priority 2019, dated 2022).

“Also recorded” adds a separate entry of the source. A value given as a limit tells only on which side of the number the result lay.

Series [1] has as its system C-166 mouse skin fibroblasts. The series is described as follows: Selectivity versus normal C-166 fibroblasts. It counts as cell-based. As to conditions: HCT-116, Caco-2 and HT-29 versus C-166. The text has this:
FIG. 3A is a graph illustrating the dose-response curve of compound 1512 on HCT-116 cell lines and C-166 cell line;
See El-Araby, M. E.; Omar, A. M.; Khayat, M. T.; Assiri, H. A.; Al-Abd, A. M., Molecular Mimics of Classic P-Glycoprotein Inhibitors as Multidrug Resistance Suppressors and Their Synergistic Effect on Paclitaxel. PLoS One 2017, 12 (1), e0168938, incorporated herein by reference in its entirety.
Different cell lines were originally purchased from American type culture collection (ATCC, Wesel, Germany) and grown in the tissue culture lab of the Egyptian company for production of vaccines, sera and drugs (Vacsera, Giza, Egypt). The cells were transferred to our laboratory and maintained in the appropriate media as following. […]
The sulforhodamine B (SRB) assays were performed according to Skehan, P.; Storeng, R.; Scudiero, D.; Monks, A.; McMahon, J.; Vistica, D.; Warren, J. T.; Bokesch, H.; Kenney, S.; Boyd, M. R., New colorimetric cytotoxicity assay for anticancer-drug screening. […] Briefly, exponentially growing cells were trypsinized, counted and seeded at the appropriate densities (5000 cells/100 μL/well) into 96-well microtiter plates. […] The protein-bound dye was dissolved in 10 mM Tris base solution for (optical density) OD determination at 510 nm using a SpectraMax plus Microplate Reader (Molecular Devices, CA). […]

The next series is described as follows: Solubility profile. It counts as physicochemical. As to conditions: stated in words together with C log P.
For series [2], the system named is HCT-116 cells. The series is described as follows: SRB cytotoxicity assay, HCT-116. It counts as cell-based, human. To be noted: for IC50: Homo sapiens, HCT-116, SRB assay, 72 h exposure, ± SEM. How it is done:
Compounds in this study were tested against colorectal cancer cell line HCT-116, using sulforhodamine-B (SRB) assay. See Skehan, P.; Storeng, R.; Scudiero, D.; Monks, A.; McMahon, J.; Vistica, D.; Warren, J. T.; Bokesch, H.; Kenney, S.; Boyd, M. R., New colorimetric cytotoxicity assay for anticancer-drug screening. J Natl Cancer Inst 1990, 82 (13), 1107-12, incorporated herein by reference in its entirety. […] However, it was clear that compounds bearing hydrophobic aliphatic groups such as MOS-1505 and MOS-1512 are clearly favored in providing anticancer activities. […] The N-aryl substituents were less advantageous in both potency and solubility.
(§1) Different cell lines were originally purchased from American type culture collection (ATCC, Wesel, Germany) and grown in the tissue culture lab of the Egyptian company for production of vaccines, sera and drugs (Vacsera, Giza, Egypt). The cells were transferred to our laboratory and maintained in the appropriate media as following. HCT-116, CACO-2, and HT-29 (human colon cancer cell lines) were maintained in Roswell Park Memorial Institute medium (RPMI1640) (Invitrogen, Carlsbad, Calif.). The mouse skin fibroblasts (C-166) and Baby Hamster Kidney fibroblasts (BHK) were grown in Dulbecco Modified Eagle's medium (DMEM). Both media were supplemented with 1% of […] of streptomycin, 100 units/mL of penicillin and 10% of heat-inactivated fetal bovine serum (Invitrogen, Carlsbad, Calif.) in a humidified, 5% (v/v) CO2 atmosphere at 37° C.
(§2) The sulforhodamine B (SRB) assays were performed according to Skehan, P.; Storeng, R.; Scudiero, D.; Monks, A.; McMahon, J.; Vistica, D.; Warren, J. T.; Bokesch, H.; Kenney, S.; Boyd, M. R., New colorimetric cytotoxicity assay for anticancer-drug screening. J Natl Cancer Inst 1990, 82 (13), 1107-12, incorporated herein by reference in its entirety. Briefly, exponentially growing cells were trypsinized, counted and seeded at the appropriate densities (5000 cells/100 μL/well) into 96-well microtiter plates. Cells were incubated in a humidified atmosphere at 37° C. for 24 h. Then, the cells were exposed to different compounds at the desired concentrations, (0.01, 0.1, 1, 10, and 100 μM) or to 1% dimethyl sulfoxide (DMSO) for 72 h. At the end of the treatment period, the media were removed, and the cells were fixed with 10% trichloroacetic acid at 4° C. for 1 hr. Following, the cells were washed with tap water four times and incubated with SRB 0.4% for 30 min. Excess dye was removed by washing repeatedly with 1% (vol/vol) acetic acid. The protein-bound dye was dissolved in 10 mM Tris base solution for (optical density) OD determination at 510 nm using a SpectraMax plus Microplate Reader (Molecular Devices, CA). Cell viability was expressed relative to the untreated control cells.
A general note: The SRB assay estimates cell density from bound dye.

A further series concerns CACO-2 cells. The series is described as follows: SRB cytotoxicity assay, CACO-2. It counts as cell-based, human. To be noted: Homo sapiens, Caco-2, 72 h exposure, ± SEM.
Description: (§3) Based on the favorable pharmacologic and physicochemical properties of MOS-1512, it was selected as a new lead for the second subset of compounds (MOS-1812 to MOS-5112). The compounds in this series contained variable groups at R^1 and R^2 that were all tested against the three cancer cell lines (HCT-116, Caco-2 and HT-29).
as §1, §2

Series [3] concerns HCT-116 cells. The series is described as follows: Nuclear fragmentation by DAPI staining. It counts as cell-based, human. As to conditions: 32 μM (IC50 concentration), 48 hours. Here is the method: Several assays were performed to determine the apoptotic effect of the early lead MOS-1512 as well as the potent derivative MOS-4112 on HCT-116 cells. […] See Drutovic, D.; Chripkova, M.; Pilatova, M.; Kruzliak, P.; Perjesi, P.; Sarissky, M.; Lupi, M.; Damia, G.; Broggini, M.; Mojzis, J., Benzylidenetetralones, cyclic chalcone analogues, induce cell cycle arrest and apoptosis in HCT116 colorectal cancer cells. Tumour Biol 2014, 35 (10), 9967-75, incorporated herein by reference in its entirety.
Cells were cultured on sterile 22 mm^2 cover slips (Harvard Apparatus, MA, USA) in sterile six well plates at a density of 2×10^5 cells/well. […] The fixed and permeabilized cells nuclei were denatured with 2 N HCl (300 μl) for 10 min, washed three times more, and treated with 0.1 μg/ml 4′,6′-diamidino-2-phenylindole, dihydrochloride (DAPI) (Sigma-Aldrich, St. Louis, Mo., USA) (1:1000) in (phosphate-buffered saline-Tween 20 (PBST) for 1 hr. After staining, the cells were washed twice with PBS. The cover slips were then mounted on a glass slide with anti-fade mounting medium and viewed with an epifluorescence microscope, Leica, DM 5500 B (Leica, Buffalo Grove, Ill., USA) at a magnification of 60×, and data were captured digitally and quantified using the microscope provided software.

Series [4] in a line: Acute oral toxicity (LD50), OECD guideline 423. Format: in vivo. To be noted: both sexes, Swiss albino, mouse, in vivo, po. The text has this:
(§4) Since compounds with electrophilic properties, e.g., MA are usually involved in a variety of toxic effects on mammalians, the general acute toxicity of 1512, 3712 and 4112 was investigated by determining the in vivo lethal dose (LD50) according to the Globally Harmonized Classification System (GHS) and following the Organization for Economic Cooperation and Development (OECD) guideline 423 (modified, adopted Mar. 23, 2006). As observed in the cellular assay, the compound safety was confirmed, as the LD50 for all compounds were between 2000-5000 mg/kg (Category 5). See Spielmann, H.; Genschow, E.; Liebsch, M.; Halle, W., Determination of the starting dose for acute oral toxicity (LD50) testing in the up and down procedure (UDP) from cytotoxicity data. ATLA 1999, 27 (6), 957-966, incorporated herein by reference in its entirety.
(§5) The experiment was conducted on 12 healthy Swiss albino mice (males and females) weighing 22-27 g and aged 8 to 10 weeks obtained from the Animal Station, Pharmacology Dept, Faculty of Pharmacy, King Abdulaziz University, Jeddah. See Shoieb, S. M.; Esmat, A.; Khalifa, A. E.; Abdel-Naim, A. B., Chrysin attenuates testosterone-induced benign prostate hyperplasia in rats. Food and Chemical Toxicology 2018, 111, 650-659, incorporated herein by reference in its entirety. All animals were kept at the regulated temperature (average 23° C.), air quality (Central air conditioning) and light (12-h light/dark cycles). Animals were provided free access to food pellets ad libitum and water. The experimental procedure was approved by the Research Ethics Committee, Faculty of Pharmacy, King Abdulaziz University prior to starting the laboratory work. Animals were humanely treated according to international and scientific principles. Changes other than vitality of the animals such as behavioral and food consumption habits were not observed in this study.
(§6) The compounds 1512, 3712 and 4112 of purity 95% or more (LC/MS) were prepared for this study as 10% suspension in water containing 0.5% tween 80.
(§7) The animals were distributed randomly into four groups (3 mice at each group). […] The second group received an oral dose of 2000 mg/Kg of the drug and observed after 24 h to count the deceased animals. According to the Guideline 423, when all animals were found alive, the same test was repeated (dose 2000 mg/kg) were given to the third group (3 animals) and observed for 24 h. All animals survived and therefore, a dose of 5000 mg/kg were administered to the fourth and final group.

The next series deals with Swiss albino mice. Kind of series: Acute oral toxicity (LD50), OECD guideline 423. Format: in vivo. As to conditions: both, Swiss albino, mouse, in vivo, po, 24 h.
Description: as §4, §5, §6, §7

For another series, the system named is HT-29 cells. Kind of series: SRB cytotoxicity assay, HT-29. As to conditions: Homo sapiens, HT-29, monolayer, 72 h exposure, ± SEM. Format: cell-based, human.
Description: as §3, §1, §2

The test system of series [5] is HT-29 colon cancer cell spheroids (cancer stem cells). Kind of series: Primary (1°) colonosphere formation assay. Format: cell-based, human. Here is the method: Compound 4112 and another potent compound 3712 were also evaluated for their ability to inhibit cancer stem cell proliferation using a primary (1°) colonosphere formation assay. In this assay, HT-29 colon cancer cells were grown in low adhesion plates to form spheres as previously described. See Patel, N. J.; Karuturi, R.; Al-Horani, R. A.; Baranwal, S.; Patel, J.; Desai, U. R.; Patel, B. B., Synthetic, non-saccharide, glycosaminoglycan mimetics selectively target colon cancer stem cells. ACS Chem Biol 2014, 9 (8), 1826-33, incorporated herein by reference in its entirety. Wells treated with the inventive compounds were compared to vehicle treated cells for primary sphere growth inhibition after 5 days of incubation. […] Of note, monolayer growth conditions are ideally suited for examining cellular proliferation, whereas spheroid growth conditions examine cancer stem cell growth and self-renewal properties.
For primary sphere formation, cells were plated in nontreated, low adhesion, 96 wells plate at the concentration of 100 cells/100 μL/well in stem cell media (SCM) that consisted of DMEM:F12:AA (Gibco), supplemented with 1×B27 (Gibco), 20 ng/mL epidermal growth factor, and 10 ng/mL fibroblast growth factor (Sigma). After 4 h of incubation, vehicle (control) or 3712 and 4112 at the desired concentrations were added to each well (at least in triplicates for each sample). On day five, numbers of spheres ranging from […] in diameter were counted using phase contrast microscope and percent inhibition was calculated compared to control.

The subject of series [6] is CRC cell lines (HCT-116, Caco-2 and HT-29). Kind of series: Cytotoxic activities against CRC cell lines (statement over three lines). It counts as cell-based. To be noted: Homo sapiens.
Description: as §3, §1, §2

Broadly, the IC50 is the point on the concentration scale where inhibition reaches its midpoint. Read a low IC50 as greater potency in that assay. The LD50 is the dose at which mortality reaches 50%. A lower LD50 goes with a more toxic substance.

As for `CCCNC(=O)/C(=C/c1ccccc1)NC(=O)/C=C/c1ccccc1` [Compound 1512, (Z)-2-[(E)-cinnamamido]-3-phenyl-N-propylacrylamide], in series [1], the “selectivity in killing cancer cells versus normal cells” value is recorded as “high selectivity”. Moreover, the solubility entry in the series “Solubility profile” is “better solubility profile”. Also, the IC50 in the series on HCT-116 cells [2] came out at 32 ± 2.6 µM; in the series on CACO-2 cells, 38 ± 0.87 µM; with HT-29 cells, 35.5 ± 1.7 µM. Moreover, in the series on HCT-116 cells [2] (dose-response curve, FIG. 3A), the “cancer cell resistance (R-value)” value is 8.2%. The “nuclear structure/morphology, DAPI staining” value in the series on HCT-116 cells [3] was “very strong blue fluorescence; also recorded: nuclear condensation and fragmentation”. The compound also came in with an LD50 at 24 h in series [4] of 2000 to 5000 mg/kg. Also, the “GHS acute toxicity category” value with Swiss albino mice is reported as “Category 5”.
As to `CCCNC(=O)/C(=C/c1c[nH]c2ccccc12)NC(=O)C=Cc1ccccc1` [Compound 3712, (Z)-2-cinnamamido-3-(1H-indol-3-yl)-N-propylacrylamide], the IC50 in [5] (Homo sapiens, 120 h, HT-29 spheres, 5 days of incubation) was 21.1 ± 1.3 µM; in the series on HCT-116 cells [2] it was 1.65 ± 0.05 µM; with CACO-2 cells, 2.1 ± 0.03 µM; in the series with HT-29 cells, 2.36 ± 0.04 µM; in [6], under 5 µM. Further, the “inhibition of colon cancer spheroids formation” value in series [5] (spheroids >50 μm, 5 days) is listed as “dose-dependent inhibition”. Moreover, in [4], the LD50 at 24 h was in the range of 2000 to 5000 mg/kg. In the series on Swiss albino mice, the “GHS acute toxicity category” value is listed as “Category 5”.
